# Source: patent US8859574B2 (IRM LLC, priority 2008, dated 2014)
# pIC50: −log10 of the molar value.
# Molecular target: T1, IGF-1R Ba/F3 (Homo sapiens, UniProt P08069)
# T1 construct: fused on or other part: TEL- (or BCR-) IGF-1R in Ba/F3: the kinase part holds the site
# Assay: Ba/F3 Cell Viability Inhibition Assay (IGF-1R Ba/F3)
# Assay type: cell-based, murine
# Details: Tel-TK transformed Ba/F3 cells, 48 hours, Britelite luminescence
# Outline: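 A 48 h compound treatment at 37 °C (3750 cells/well) was followed by Britelite luminescence to measure viability. Cells were Ba/F3 pro-B cells, IL-3-independent via TEL-fused IGF-1R kinase transduction. A logistic fit gave IC50 as 50% viability relative to DMSO control.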
# T1 sequence (P08069 999-1274 limits assumed): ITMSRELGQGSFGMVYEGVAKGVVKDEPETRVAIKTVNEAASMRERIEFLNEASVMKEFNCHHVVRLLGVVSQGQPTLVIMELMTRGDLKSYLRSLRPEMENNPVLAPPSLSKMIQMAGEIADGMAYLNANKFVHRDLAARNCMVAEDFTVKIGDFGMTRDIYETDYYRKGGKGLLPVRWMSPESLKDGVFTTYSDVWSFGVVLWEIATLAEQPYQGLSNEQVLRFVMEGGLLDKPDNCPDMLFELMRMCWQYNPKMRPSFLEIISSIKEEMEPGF
row,Structure (SMILES),pIC50
1,"Cc1cc(Nc2nc(Nc3cc(C)c(C4CCCN(C(=O)CN(C)C)C4)cc3C)ncc2Cl)n[nH]1 (centres unmarked) [Compound 180, 1-(3-(4-(5-chloro-4-(5-methyl-1H-pyrazol-3-ylamino)pyrimidin-2-ylamino)-2,5-dimethylphenyl)piperidin-1-yl)-2-(dimethylamino)ethanone]",7.60
2,"Cc1cc(Nc2nc(Nc3cc(C)c(C4CCCCN4CC(N)=O)cc3C)ncc2Cl)n[nH]1 (centres unmarked) [Compound 181, 2-(2-(4-(5-Chloro-4-(5-methyl-1H-pyrazol-3-ylamino)pyrimidin-2-ylamino)-2,5-dimethylphenyl)piperidin-1-yl)acetamide]",7.62
3,"CNC(=O)CN1CCCCC1c1cc(C)c(Nc2ncc(Cl)c(Nc3cc(C)[nH]n3)n2)cc1C (centres unmarked) [Compound 182, 2-(2-(4-(5-chloro-4-(5-methyl-1H-pyrazol-3-ylamino)pyrimidin-2-ylamino)-2,5-dimethylphenyl)piperidin-1-yl)-N-methylacetamide]",7.72
4,"CCC(C(N)=O)N1CCC(c2cc(C)c(Nc3ncc(Cl)c(Nc4cc(C)[nH]n4)n3)cc2C)CC1 (centres unmarked) [Compound 185, 2-(4-(4-(5-chloro-4-(5-methyl-1H-pyrazol-3-ylamino)pyrimidin-2-ylamino)-2,5-dimethylphenyl)piperidin-1-yl)butanamide]",8.05
5,"Cc1cc(C2CCN(C(=O)CN(C)C)CC2)c(C)cc1Nc1ncc(Cl)c(Nc2cc(C3CC3)[nH]n2)n1 [Compound 186, 1-(4-(4-(5-chloro-4-(5-cyclopropyl-1H-pyrazol-3-ylamino)pyrimidin-2-ylamino)-2,5-dimethylphenyl)piperidin-1-yl)-2-(dimethylamino)ethanone]",7.92
6,"Cc1cc(Nc2nc(Nc3cc(C)c(C4CCCN(C(=O)C5(N)CC5)C4)cc3C)ncc2Cl)n[nH]1 (centres unmarked) [Compound 187, (1-aminocyclopropyl)(3-(4-(5-chloro-4-(5-methyl-1H-pyrazol-3-ylamino)pyrimidin-2-ylamino)-2,5-dimethylphenyl)piperidin-1-yl)methanone]",7.02
7,"Cc1cc(C2CCN(C(=O)C3(N)CC3)CC2)c(C)cc1Nc1ncc(Cl)c(Nc2cc(C3CC3)[nH]n2)n1 [Compound 188, (1-aminocyclopropyl)(4-(4-(5-chloro-4-(5-cyclopropyl-1H-pyrazol-3-ylamino)pyrimidin-2-ylamino)-2,5-dimethylphenyl)piperidin-1-yl)methanone]",7.72
8,"CCC(C(=O)NC)N1CCC(c2cc(C)c(Nc3ncc(Cl)c(Nc4cc(C)[nH]n4)n3)cc2C)CC1 (centres unmarked) [Compound 189, 2-(4-(4-(5-chloro-4-(5-methyl-1H-pyrazol-3-ylamino)pyrimidin-2-ylamino)-2,5-dimethylphenyl)piperidin-1-yl)-N-methylbutanamide]",8.15
9,"CCNC(=O)C(CC)N1CCC(c2cc(C)c(Nc3ncc(Cl)c(Nc4cc(C)[nH]n4)n3)cc2C)CC1 (centres unmarked) [Compound 190, 2-(4-(4-(5-chloro-4-(5-methyl-1H-pyrazol-3-ylamino)pyrimidin-2-ylamino)-2,5-dimethylphenyl)piperidin-1-yl)-N-ethylbutanamide]",8.15
10,"Cc1cc(Nc2nc(Nc3cc(C)c(C4CCCCN4Cc4c(C)noc4C)cc3C)ncc2Cl)n[nH]1 (centres unmarked) [Compound 191, 5-chloro-N2-(4-(1-((3,5-dimethylisoxazol-4-yl)methyl)piperidin-2-yl)-2,5-dimethylphenyl)-N4-(5-methyl-1H-pyrazol-3-yl)pyrimidine-2,4-diamine]",6.95
11,"Cc1cc(Nc2nc(Nc3cc(C)c(C4CCN(C(=O)C5(O)CC5)CC4)cc3F)ncc2Cl)n[nH]1 [Compound 192, (4-(4-(5-chloro-4-(5-methyl-1H-pyrazol-3-ylamino)pyrimidin-2-ylamino)-5-fluoro-2-methylphenyl)piperidin-1-yl)(1-hydroxycyclopropyl)methanone]",7.68
12,"Cc1cc(Nc2nc(Nc3cc(C)c(C4CCCCN4C(=O)C4(O)CC4)cc3C)ncc2Cl)n[nH]1 (centres unmarked) [Compound 193, (2-(4-(5-chloro-4-(5-methyl-1H-pyrazol-3-ylamino)pyrimidin-2-ylamino)-2,5-dimethylphenyl)piperidin-1-yl)(1-hydroxycyclopropyl)methanone]",7.12
13,"Cc1cc(Nc2nc(Nc3cc(C)c(C4CCN(S(=O)(=O)CCCN5CCOCC5)CC4)cc3C)ncc2Cl)n[nH]1 [Compound 194, 5-Chloro-N^2-(2,5-dimethyl-4-(1-(3-morpholinopropylsulfonyl)piperidin-4-yl)phenyl)-N^4-(5-methyl-1H-pyrazol-3-yl)pyrimidine-2,4-diamine]",7.89
14,"Cc1cc(Nc2nc(Nc3cc(C)c(C4CCN(S(=O)(=O)CCCN5CCC5)CC4)cc3C)ncc2Cl)n[nH]1 [Compound 195, N2-(4-(1-(3-(azetidin-1-yl)propylsulfonyl)piperidin-4-yl)-2,5-dimethylphenyl)-5-chloro-N4-(5-methyl-1H-pyrazol-3-yl)pyrimidine-2,4-diamine]",7.57
15,"Cc1cc(Nc2nc(Nc3cc(C)c(C4CCN(S(=O)(=O)CCCN5C[C@@H](O)[C@H](O)C5)CC4)cc3C)ncc2Cl)n[nH]1 [Compound 196, (3R,4R)-1-(3-(4-(4-(5-chloro-4-(5-methyl-1H-pyrazol-3-ylamino)pyrimidin-2-ylamino)-2,5-dimethylphenyl)piperidin-1-ylsulfonyl)propyl)pyrrolidine-3,4-diol]",6.43
16,"Cc1cc(Nc2nc(Nc3cc(C)c(C4CCCCN4C[C@H](O)C(F)(F)F)cc3C)ncc2Cl)n[nH]1 (stereo partly drawn) [Compound 197, (2S)-3-(2-(4-(5-chloro-4-(5-methyl-1H-pyrazol-3-ylamino)pyrimidin-2-ylamino)-2,5-dimethylphenyl)piperidin-1-yl)-1,1,1-trifluoropropan-2-ol]",6.68
17,"Cc1cc(Nc2nc(Nc3cc(C)c(C4CCN(CC5(C#N)CC5)CC4)cc3C)ncc2Cl)n[nH]1 [Compound 198, 1-((4-(4-(5-chloro-4-(5-methyl-1H-pyrazol-3-ylamino)pyrimidin-2-ylamino)-2,5-dimethylphenyl)piperidin-1-yl)methyl)cyclopropanecarbonitrile]",7.66
18,"Cc1cc(Nc2nc(Nc3cc(C)c(C4CCN(CC#N)CC4)cc3F)ncc2Cl)n[nH]1 [Compound 199, 2-(4-(4-(5-chloro-4-(5-methyl-1H-pyrazol-3-ylamino)pyrimidin-2-ylamino)-5-fluoro-2-methylphenyl)piperidin-1-yl)acetonitrile]",7.11
19,"Cc1cc(Nc2nc(Nc3cc(C)c(C4CCN(CCC#N)CC4)cc3F)ncc2Cl)n[nH]1 [Compound 200, 3-(4-(4-(5-chloro-4-(5-methyl-1H-pyrazol-3-ylamino)pyrimidin-2-ylamino)-5-fluoro-2-methylphenyl)piperidin-1-yl)propanenitrile]",7.44
20,"Cc1cc(Nc2nc(Nc3cc(C)c(C4CCCN(C[C@H](O)C(F)(F)F)C4)cc3C)ncc2Cl)n[nH]1 (stereo partly drawn) [Compound 201, (2S)-3-(3-(4-(5-chloro-4-(5-methyl-1H-pyrazol-3-ylamino)pyrimidin-2-ylamino)-2,5-dimethylphenyl)piperidin-1-yl)-1,1,1-trifluoropropan-2-ol]",7.34
21,"Cc1cc(Nc2nc(Nc3cc(C)c(C4CCN(CC(N)=O)CC4)cc3C)ncc2C(F)(F)F)n[nH]1 [Compound 202, 2-(4-(2,5-dimethyl-4-(4-(5-methyl-1H-pyrazol-3-ylamino)-5-(trifluoromethyl)pyrimidin-2-ylamino)phenyl)piperidin-1-yl)acetamide]",7.70
22,"CNC(=O)CN1CCC(c2cc(C)c(Nc3ncc(C(F)(F)F)c(Nc4cc(C)[nH]n4)n3)cc2C)CC1 [Compound 203, 2-(4-(2,5-dimethyl-4-(4-(5-methyl-1H-pyrazol-3-ylamino)-5-(trifluoromethyl)pyrimidin-2-ylamino)phenyl)piperidin-1-yl)-N-methylacetamide]",7.82
23,"Cc1cc(C2CCN(CCO)CC2)c(C)cc1Nc1ncc(Cl)c(Nc2cc(C3CC3)[nH]n2)n1 [Compound 204, 2-(4-(4-(5-chloro-4-(5-cyclopropyl-1H-pyrazol-3-ylamino)pyrimidin-2-ylamino)-2,5-dimethylphenyl)piperidin-1-yl)ethanol]",7.80
24,"CCN1CCC(c2cc(C)c(Nc3ncc(Cl)c(Nc4cc(C5CC5)[nH]n4)n3)cc2C)CC1 [Compound 205, 5-chloro-N4-(5-cyclopropyl-1H-pyrazol-3-yl)-N2-(4-(1-ethylpiperidin-4-yl)-2,5-dimethylphenyl)pyrimidine-2,4-diamine]",7.72
25,"Cc1cc(Nc2nc(Nc3cc(C)c(C4CCN(C=O)CC4)cc3F)ncc2Cl)n[nH]1 [Compound 206, 4-(4-(5-chloro-4-(5-methyl-1H-pyrazol-3-ylamino)pyrimidin-2-ylamino)-5-fluoro-2-methylphenyl)piperidine-1-carbaldehyde]",7.52
26,"Cc1cc(Nc2nc(Nc3cc(C)c(C4CCN(C5CCOCC5)CC4)cc3F)ncc2Cl)n[nH]1 [Compound 209, 5-chloro-N^2-(2-fluoro-5-methyl-4-(1-(tetrahydro-2H-pyran-4-yl)piperidin-4-yl)phenyl)-N^4-(5-methyl-1H-pyrazol-3-yl)pyrimidine-2,4-diamine]",7.57
27,"Cc1cc(Nc2nc(Nc3cc(C)c(C4CCN(C5CC5)CC4)cc3F)ncc2Cl)n[nH]1 [Compound 210, 5-chloro-N^2-(4-(1-cyclopropylpiperidin-4-yl)-2-fluoro-5-methylphenyl)-N^4-(5-methyl-1H-pyrazol-3-yl)pyrimidine-2,4-diamine]",7.49
28,"CCN1CCC(c2cc(C)c(Nc3ncc(Cl)c(Nc4cc(C)[nH]n4)n3)cc2C)CC1 [Compound 211, 5-chloro-N2-(4-(1-ethylpiperidin-4-yl)-2,5-dimethylphenyl)-N4-(5-methyl-1H-pyrazol-3-yl)pyrimidine-2,4-diamine]",8.05
29,"COCCN1CCC(c2cc(C)c(Nc3ncc(Cl)c(Nc4cc(C)[nH]n4)n3)cc2C)CC1 [Compound 212, 5-chloro-N2-(4-(1-(2-methoxyethyl)piperidin-4-yl)-2,5-dimethylphenyl)-N4-(5-methyl-1H-pyrazol-3-yl)pyrimidine-2,4-diamine]",7.89
